# Data from the kinase profiling compilation of Christmann-Franck et al. (2016).
# Assays:
# Test in all cases: radiometric filter-binding kinase assay
# [1] = target: INSR (human) (UniProt P06213)
# [2] = target: SYK (human) (UniProt P43405)
# [3] = test system: ROCK2 (rat); conditions: accession and sequence are those of the human protein
# [4] = target: DYRK3 (human) (UniProt O43781)
# [5] = target: MARK1 (human) (UniProt Q9P0L2)
# [6] = target: TTK (human) (UniProt P33981)
# [7] = target: GSK3B (human) (UniProt P49841)
# [8] = target: MKNK1 (human) (UniProt Q9BUB5)
# [9] = target: MAPK10 (human) (UniProt P53779)
# [10] = target: EPHB1 (human) (UniProt P54762)
# Sequence of EPHB1 (human) (P54762 whole entry, looked up): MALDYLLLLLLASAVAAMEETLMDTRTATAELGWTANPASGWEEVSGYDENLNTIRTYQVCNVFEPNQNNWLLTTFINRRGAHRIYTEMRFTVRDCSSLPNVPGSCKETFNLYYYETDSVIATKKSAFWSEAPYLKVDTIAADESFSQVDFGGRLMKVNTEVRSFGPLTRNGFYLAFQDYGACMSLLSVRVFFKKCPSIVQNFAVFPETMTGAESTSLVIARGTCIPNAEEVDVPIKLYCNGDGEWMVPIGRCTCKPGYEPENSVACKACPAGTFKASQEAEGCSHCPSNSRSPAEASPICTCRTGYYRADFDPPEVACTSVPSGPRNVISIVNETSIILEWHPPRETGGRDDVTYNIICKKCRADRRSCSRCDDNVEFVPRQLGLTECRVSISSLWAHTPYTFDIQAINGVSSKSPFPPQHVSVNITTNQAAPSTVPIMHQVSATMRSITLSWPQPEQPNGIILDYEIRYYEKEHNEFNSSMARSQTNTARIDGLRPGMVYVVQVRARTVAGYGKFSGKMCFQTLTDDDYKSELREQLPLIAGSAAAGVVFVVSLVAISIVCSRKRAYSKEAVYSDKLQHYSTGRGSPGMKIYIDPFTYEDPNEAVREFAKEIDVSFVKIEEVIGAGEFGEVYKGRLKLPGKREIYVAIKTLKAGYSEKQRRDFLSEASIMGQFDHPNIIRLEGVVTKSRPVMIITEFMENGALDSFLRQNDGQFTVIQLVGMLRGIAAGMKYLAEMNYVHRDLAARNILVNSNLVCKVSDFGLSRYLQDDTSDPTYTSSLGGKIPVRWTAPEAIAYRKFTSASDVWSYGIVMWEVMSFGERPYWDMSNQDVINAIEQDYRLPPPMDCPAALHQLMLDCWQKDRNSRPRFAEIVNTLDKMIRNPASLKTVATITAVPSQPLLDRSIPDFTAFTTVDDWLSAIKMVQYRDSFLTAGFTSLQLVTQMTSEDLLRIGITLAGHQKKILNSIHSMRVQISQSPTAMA
# [11] = target: PIM3 (human) (UniProt Q86V86)
# [12] = test system: LCK (mouse); conditions: accession and sequence are those of the human protein
# [13] = target: INSRR (human) (UniProt P14616)
# [14] = test system: AKT2 (human), P31751 [S474D]
# Sequence of AKT2 (human), P31751 [S474D] (P31751 whole entry S474D, looked up): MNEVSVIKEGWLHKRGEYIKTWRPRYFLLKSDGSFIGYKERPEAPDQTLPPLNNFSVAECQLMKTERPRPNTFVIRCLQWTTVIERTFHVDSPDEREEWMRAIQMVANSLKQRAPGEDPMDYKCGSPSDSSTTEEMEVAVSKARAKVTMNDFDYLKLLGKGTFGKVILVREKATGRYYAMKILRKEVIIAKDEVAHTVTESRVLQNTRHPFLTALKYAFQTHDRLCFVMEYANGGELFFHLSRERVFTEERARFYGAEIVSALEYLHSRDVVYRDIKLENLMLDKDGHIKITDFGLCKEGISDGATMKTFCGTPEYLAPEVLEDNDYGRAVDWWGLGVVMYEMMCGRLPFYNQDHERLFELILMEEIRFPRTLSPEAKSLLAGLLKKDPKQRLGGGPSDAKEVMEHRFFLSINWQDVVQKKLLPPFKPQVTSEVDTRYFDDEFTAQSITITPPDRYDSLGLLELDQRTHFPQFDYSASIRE
# [15] = test system: AKT1 (human), P31749 [S473D]
# [16] = test system: RPS6KB1 (human), P23443 [T412E]
# [17] = target: SRPK1 (human) (UniProt Q96SB4)
# [18] = target: EPHA2 (human) (UniProt P29317)
# [19] = target: MAP3K9 (human) (UniProt P80192)
# [20] = target: MARK2 (human) (UniProt Q7KZI7); conditions: compound 100.0 µM
# [21] = target: TBK1 (human) (UniProt Q9UHD2)
# [22] = test system: PAK2 (human), Q13177 [T402E]
# [23] = target: NEK2 (human) (UniProt P51955)
# Sequence of NEK2 (human) (P51955 whole entry, looked up): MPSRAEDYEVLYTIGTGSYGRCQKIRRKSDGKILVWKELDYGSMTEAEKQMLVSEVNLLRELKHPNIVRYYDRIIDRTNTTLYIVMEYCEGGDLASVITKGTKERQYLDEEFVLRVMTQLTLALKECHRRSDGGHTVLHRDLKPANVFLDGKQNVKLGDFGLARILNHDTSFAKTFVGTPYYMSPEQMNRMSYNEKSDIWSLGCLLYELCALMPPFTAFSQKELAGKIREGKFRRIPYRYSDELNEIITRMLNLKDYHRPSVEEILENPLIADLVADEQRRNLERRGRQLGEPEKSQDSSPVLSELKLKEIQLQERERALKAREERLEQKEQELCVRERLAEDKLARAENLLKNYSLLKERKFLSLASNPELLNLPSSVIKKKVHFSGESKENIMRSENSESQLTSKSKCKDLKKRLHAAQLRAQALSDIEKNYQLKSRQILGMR
# [24] = target: PKN2 (human) (UniProt Q16513)
# [25] = target: MAPK11 (human) (UniProt Q15759)
# Sequence of MAPK11 (human) (Q15759 whole entry, looked up): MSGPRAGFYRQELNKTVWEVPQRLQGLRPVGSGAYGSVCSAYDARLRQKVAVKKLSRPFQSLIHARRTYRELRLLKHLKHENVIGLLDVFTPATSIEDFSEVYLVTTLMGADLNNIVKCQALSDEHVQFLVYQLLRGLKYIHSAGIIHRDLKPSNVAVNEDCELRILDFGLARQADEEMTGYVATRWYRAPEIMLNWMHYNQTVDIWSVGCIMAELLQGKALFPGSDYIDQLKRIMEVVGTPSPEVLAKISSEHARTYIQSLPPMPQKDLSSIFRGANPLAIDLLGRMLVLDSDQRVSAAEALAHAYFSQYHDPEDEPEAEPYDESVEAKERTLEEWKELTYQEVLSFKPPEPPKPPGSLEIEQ
# [26] = target: MAP2K1 (human) (UniProt Q02750)
# [27] = target: STK11 CAB39 STRADA (human) (UniProt Q9Y376+Q7RTN6+Q15831)
# [28] = target: FGFR1 (human) (UniProt P11362)
# [29] = target: MAP2K6 (human) (UniProt P52564)
# [30] = target: PIM2 (human) (UniProt Q9P1W9)
# [31] = target: CSNK2A1 (human) (UniProt P68400)
# [32] = target: MAPK13 (human) (UniProt O15264)
# Sequence of MAPK13 (human) (O15264 whole entry, looked up): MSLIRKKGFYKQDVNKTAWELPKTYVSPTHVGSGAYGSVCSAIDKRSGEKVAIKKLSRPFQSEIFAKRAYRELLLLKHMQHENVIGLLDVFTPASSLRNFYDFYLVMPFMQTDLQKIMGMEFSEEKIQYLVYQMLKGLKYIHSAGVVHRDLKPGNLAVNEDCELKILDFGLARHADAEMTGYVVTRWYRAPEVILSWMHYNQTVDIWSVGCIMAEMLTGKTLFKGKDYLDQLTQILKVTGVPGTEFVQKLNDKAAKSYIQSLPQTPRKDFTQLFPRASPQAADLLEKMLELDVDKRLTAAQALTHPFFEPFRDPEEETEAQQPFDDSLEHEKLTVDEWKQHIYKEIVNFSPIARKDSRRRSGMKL
# [33] = target: MYLK (human) (UniProt Q15746)
# [34] = target: PHKG1 (human) (UniProt Q16816)
# [35] = target: IRAK4 (human) (UniProt Q9NWZ3)
# [36] = target: NEK6 (human) (UniProt Q9HC98)
# Sequence of NEK6 (human) (Q9HC98 whole entry, looked up): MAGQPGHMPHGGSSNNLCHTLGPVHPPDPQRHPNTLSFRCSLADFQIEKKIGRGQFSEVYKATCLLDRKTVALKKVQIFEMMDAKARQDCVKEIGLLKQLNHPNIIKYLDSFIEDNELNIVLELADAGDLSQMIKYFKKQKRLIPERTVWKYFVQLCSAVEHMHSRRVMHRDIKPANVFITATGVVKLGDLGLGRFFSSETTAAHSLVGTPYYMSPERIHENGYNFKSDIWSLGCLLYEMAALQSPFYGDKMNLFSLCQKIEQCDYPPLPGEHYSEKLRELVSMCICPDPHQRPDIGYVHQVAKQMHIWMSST
# Sequence of DYRK3 (human) (O43781 whole entry, looked up): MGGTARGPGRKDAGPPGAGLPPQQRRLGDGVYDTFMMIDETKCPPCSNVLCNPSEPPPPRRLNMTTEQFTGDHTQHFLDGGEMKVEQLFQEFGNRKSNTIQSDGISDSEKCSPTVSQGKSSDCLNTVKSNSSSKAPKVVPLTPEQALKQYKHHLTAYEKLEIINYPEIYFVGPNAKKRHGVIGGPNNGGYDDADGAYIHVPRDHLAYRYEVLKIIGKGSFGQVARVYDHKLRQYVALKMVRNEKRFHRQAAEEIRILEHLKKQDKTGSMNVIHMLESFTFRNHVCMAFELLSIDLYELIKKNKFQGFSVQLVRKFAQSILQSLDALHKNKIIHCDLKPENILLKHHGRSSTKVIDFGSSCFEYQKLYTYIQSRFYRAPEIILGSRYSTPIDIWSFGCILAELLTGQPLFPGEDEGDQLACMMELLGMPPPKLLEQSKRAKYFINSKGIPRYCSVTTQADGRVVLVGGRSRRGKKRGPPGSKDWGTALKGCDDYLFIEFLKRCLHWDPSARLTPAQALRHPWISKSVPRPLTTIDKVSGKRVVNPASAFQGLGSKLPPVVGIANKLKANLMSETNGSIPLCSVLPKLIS
# Sequence of INSR (human) (P06213 whole entry, looked up): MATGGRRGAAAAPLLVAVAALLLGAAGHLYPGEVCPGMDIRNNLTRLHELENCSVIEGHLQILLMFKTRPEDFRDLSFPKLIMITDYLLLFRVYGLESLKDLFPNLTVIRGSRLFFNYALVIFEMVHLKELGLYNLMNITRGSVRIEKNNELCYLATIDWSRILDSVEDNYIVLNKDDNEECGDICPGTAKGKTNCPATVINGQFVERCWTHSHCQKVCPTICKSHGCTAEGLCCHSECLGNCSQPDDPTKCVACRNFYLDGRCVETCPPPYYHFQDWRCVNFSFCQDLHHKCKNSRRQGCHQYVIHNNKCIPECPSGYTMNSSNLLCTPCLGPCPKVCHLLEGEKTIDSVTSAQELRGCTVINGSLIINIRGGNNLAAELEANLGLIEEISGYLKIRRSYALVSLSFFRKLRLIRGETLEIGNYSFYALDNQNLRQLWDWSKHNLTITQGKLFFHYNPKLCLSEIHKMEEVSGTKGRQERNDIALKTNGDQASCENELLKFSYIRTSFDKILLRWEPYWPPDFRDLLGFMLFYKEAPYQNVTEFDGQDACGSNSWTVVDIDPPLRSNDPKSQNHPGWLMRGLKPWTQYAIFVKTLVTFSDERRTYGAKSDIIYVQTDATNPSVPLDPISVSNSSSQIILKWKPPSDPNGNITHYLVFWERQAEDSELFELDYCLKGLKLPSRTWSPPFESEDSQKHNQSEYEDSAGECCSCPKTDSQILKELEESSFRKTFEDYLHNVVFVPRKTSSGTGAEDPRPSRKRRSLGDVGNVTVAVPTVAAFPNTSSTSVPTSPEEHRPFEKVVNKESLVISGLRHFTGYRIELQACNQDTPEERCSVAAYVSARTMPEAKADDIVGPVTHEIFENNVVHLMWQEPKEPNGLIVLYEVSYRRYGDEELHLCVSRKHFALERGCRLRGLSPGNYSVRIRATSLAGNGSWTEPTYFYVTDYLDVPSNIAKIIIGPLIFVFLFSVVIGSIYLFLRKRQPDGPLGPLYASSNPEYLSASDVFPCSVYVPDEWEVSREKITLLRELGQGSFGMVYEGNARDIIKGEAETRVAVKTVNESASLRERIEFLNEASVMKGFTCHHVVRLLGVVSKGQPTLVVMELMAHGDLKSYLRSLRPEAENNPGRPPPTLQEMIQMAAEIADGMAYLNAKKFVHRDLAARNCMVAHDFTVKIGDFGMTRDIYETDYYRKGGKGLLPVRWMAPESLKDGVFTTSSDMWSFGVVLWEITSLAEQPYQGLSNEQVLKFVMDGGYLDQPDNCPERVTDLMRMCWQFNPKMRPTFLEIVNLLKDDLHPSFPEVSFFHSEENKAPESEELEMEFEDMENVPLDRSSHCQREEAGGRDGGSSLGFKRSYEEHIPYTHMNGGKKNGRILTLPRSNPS
smiles,measurement,setting,value
Cc1cc(N=Nc2cc(S(=O)(=O)O)c(C)cc2C)c(N)cc1O,residual activity,[1]; compound 100.0 µM,141%
same,residual activity,[2]; compound 100.0 µM,103%
same,residual activity,[3]; compound 100.0 µM,105%
same,residual activity,[4]; compound 100.0 µM,65%
same,residual activity,[5]; compound 100.0 µM,99%
same,residual activity,[6]; compound 100.0 µM,90%
same,residual activity,[7]; compound 100.0 µM,31%
same,residual activity,[8]; compound 100.0 µM,99%
same,residual activity,[9]; compound 100.0 µM,100%
same,residual activity,[10]; compound 100.0 µM,97%
same,residual activity,[11]; compound 100.0 µM,45%
same,residual activity,[12]; compound 100.0 µM,112%
same,residual activity,[13]; compound 100.0 µM,103%
same,residual activity,[14]; compound 100.0 µM,37%
same,residual activity,[15]; compound 100.0 µM,108%
same,residual activity,[16]; compound 100.0 µM,102%
same,residual activity,[17]; compound 100.0 µM,59%
same,residual activity,[18]; compound 100.0 µM,89%
same,residual activity,[19]; compound 100.0 µM,58%
same,residual activity,[20],98%
same,residual activity,[21]; compound 100.0 µM,94%
same,residual activity,[22]; compound 100.0 µM,100%
same,residual activity,[23]; compound 100.0 µM,118%
same,residual activity,[24]; compound 100.0 µM,126%
same,residual activity,[25]; compound 100.0 µM,58%
same,residual activity,[26]; compound 100.0 µM,103%
same,residual activity,[27]; compound 100.0 µM,126%
same,residual activity,[28]; compound 100.0 µM,59%
same,residual activity,[29]; compound 100.0 µM,113%
same,residual activity,[30]; compound 100.0 µM,58%
same,residual activity,[31]; compound 100.0 µM,51%
same,residual activity,[32]; compound 100.0 µM,109%
same,residual activity,[33]; compound 100.0 µM,97%
same,residual activity,[34]; compound 100.0 µM,86%
O=C(Nc1nc2cc(C(F)(F)F)cc(NC3CC3)n2n1)c1cccnc1,residual activity,[1]; compound 0.01 µM,107%
same,residual activity,[1]; compound 1.0 µM,100%
same,residual activity,[2]; compound 0.01 µM,107%
same,residual activity,[2]; compound 0.1 µM,99%
same,residual activity,[3]; compound 0.01 µM,105%
same,residual activity,[3]; compound 0.1 µM,106%
same,residual activity,[3]; compound 1.0 µM,97%
same,residual activity,[4]; compound 0.01 µM,92%
same,residual activity,[4]; compound 0.1 µM,119%
same,residual activity,[4]; compound 1.0 µM,91%
same,residual activity,[5]; compound 0.01 µM,93%
same,residual activity,[5]; compound 0.1 µM,90%
same,residual activity,[5]; compound 1.0 µM,86%
same,residual activity,[6]; compound 0.01 µM,93%
same,residual activity,[6]; compound 0.1 µM,99%
same,residual activity,[6]; compound 1.0 µM,96%
same,residual activity,[7]; compound 0.01 µM,87%
same,residual activity,[7]; compound 0.1 µM,92%
same,residual activity,[7]; compound 1.0 µM,79%
same,residual activity,[8]; compound 0.01 µM,94%
same,residual activity,[8]; compound 0.1 µM,99%
same,residual activity,[8]; compound 1.0 µM,98%
same,residual activity,[9]; compound 0.01 µM,85%
same,residual activity,[9]; compound 0.1 µM,88%
same,residual activity,[9]; compound 1.0 µM,79%
same,residual activity,[10]; compound 0.01 µM,106%
same,residual activity,[10]; compound 0.1 µM,120%
same,residual activity,[10]; compound 1.0 µM,94%
same,residual activity,[11]; compound 0.01 µM,104%
same,residual activity,[11]; compound 0.1 µM,101%
same,residual activity,[11]; compound 1.0 µM,95%
same,residual activity,[12]; compound 0.01 µM,106%
same,residual activity,[12]; compound 0.1 µM,97%
same,residual activity,[12]; compound 1.0 µM,95%
same,residual activity,[13]; compound 0.01 µM,91%
same,residual activity,[13]; compound 0.1 µM,104%
same,residual activity,[13]; compound 1.0 µM,94%
same,residual activity,[14]; compound 0.01 µM,97%
same,residual activity,[14]; compound 0.1 µM,103%
same,residual activity,[14]; compound 1.0 µM,94%
same,residual activity,[15]; compound 0.01 µM,97%
same,residual activity,[15]; compound 0.1 µM,95%
same,residual activity,[15]; compound 1.0 µM,104%
same,residual activity,[16]; compound 0.01 µM,125%
same,residual activity,[16]; compound 0.1 µM,104%
same,residual activity,[16]; compound 1.0 µM,103%
same,residual activity,[17]; compound 0.01 µM,100%
same,residual activity,[17]; compound 0.1 µM,90%
same,residual activity,[17]; compound 1.0 µM,102%
same,residual activity,[18]; compound 0.01 µM,95%
same,residual activity,[18]; compound 0.1 µM,93%
same,residual activity,[18]; compound 1.0 µM,100%
same,residual activity,[19]; compound 0.01 µM,90%
same,residual activity,[19]; compound 0.1 µM,80%
same,residual activity,[19]; compound 1.0 µM,75%
same,residual activity,[35]; compound 0.01 µM,90%
same,residual activity,[35]; compound 0.1 µM,90%
same,residual activity,[35]; compound 1.0 µM,83%
same,residual activity,[21]; compound 0.01 µM,99%
same,residual activity,[21]; compound 0.1 µM,101%
same,residual activity,[21]; compound 1.0 µM,102%
same,residual activity,[22]; compound 0.01 µM,110%
same,residual activity,[22]; compound 0.1 µM,126%
same,residual activity,[22]; compound 1.0 µM,104%
same,residual activity,[23]; compound 0.01 µM,97%
same,residual activity,[23]; compound 0.1 µM,97%
same,residual activity,[23]; compound 1.0 µM,96%
same,residual activity,[24]; compound 0.01 µM,77%
same,residual activity,[24]; compound 0.1 µM,104%
same,residual activity,[24]; compound 1.0 µM,75%
same,residual activity,[25]; compound 0.01 µM,106%
same,residual activity,[25]; compound 0.1 µM,121%
same,residual activity,[25]; compound 1.0 µM,107%
same,residual activity,[26]; compound 0.01 µM,72%
same,residual activity,[26]; compound 0.1 µM,76%
same,residual activity,[26]; compound 1.0 µM,61%
same,residual activity,[27]; compound 0.01 µM,107%
same,residual activity,[27]; compound 0.1 µM,132%
same,residual activity,[27]; compound 1.0 µM,105%
same,residual activity,[28]; compound 0.01 µM,111%
same,residual activity,[28]; compound 0.1 µM,105%
same,residual activity,[28]; compound 1.0 µM,101%
same,residual activity,[29]; compound 0.01 µM,100%
same,residual activity,[29]; compound 0.1 µM,110%
same,residual activity,[29]; compound 1.0 µM,85%
same,residual activity,[30]; compound 0.01 µM,106%
same,residual activity,[30]; compound 0.1 µM,109%
same,residual activity,[30]; compound 1.0 µM,108%
same,residual activity,[31]; compound 0.01 µM,99%
same,residual activity,[31]; compound 0.1 µM,127%
same,residual activity,[31]; compound 1.0 µM,102%
same,residual activity,[32]; compound 0.01 µM,102%
same,residual activity,[32]; compound 0.1 µM,90%
same,residual activity,[32]; compound 1.0 µM,90%
same,residual activity,[33]; compound 0.01 µM,96%
same,residual activity,[33]; compound 0.1 µM,93%
same,residual activity,[33]; compound 1.0 µM,106%
same,residual activity,[34]; compound 0.01 µM,104%
same,residual activity,[34]; compound 0.1 µM,115%
same,residual activity,[34]; compound 1.0 µM,92%
same,residual activity,[36]; compound 0.01 µM,114%
same,residual activity,[36]; compound 0.1 µM,113%
same,residual activity,[36]; compound 1.0 µM,101%
